# In patent publication US6500841B1, “Inhibitors of farnesyl-protein transferase” (Merck & Co., Inc., priority 1994, dated 2002):
# What was measured:
# [1] = test system: Ras farnesylation in the v-ras cell line (viral Ha-ras p21); assay: cells; assay type: cell-based; settings: v-ras cell line expressing viral Ha-ras p21; <1 = >50% inhibition at a 1 μM concentration
# Protocol: The cell line used in this assay was the v-ras line, which expressed viral Ha-ras p21. The assay was performed essentially as described in DeClue, J. E. et. al., Cancer Research 51, 712-717, (1991). Cells in 10 cm dishes at 50-75% confluency were treated with the test compound (final concentration of solvent, methanol or dimethyl sulfoxide, was 0.1%). After 4 hours at 37° C., the cells were labelled in 3 ml methionine-free DMEM supplemeted with 10% regular DMEM, 2% fetal bovine serum and 400 μCi[^35S]methionine (1000 Ci/mmol). After an additional 20 hours, the cells were lysed in 1 ml lysis buffer (1% NP40/20 mM HEPES, pH 7.5/5 mM MgCl2/1 mM DTT/10 μg/ml aprotinen/2 μg/ml leupeptin/2 μg/ml antipain/0.5 mM PMSF) and the lysates cleared by centrifugation at 100,000×g for 45 min. Aliquots of lysates containing equal numbers of acid-precipitable counts were brought to 1 ml with IP buffer (lysis buffer lacking DTF) and immunoprecipitated with the ras-specific monoclonal antibody Y13-259 (Furth, M. E. et. al., J. Virol. 43, 294-304, (1982)). Following a 2 hour antibody incubation at 4° C., 200 μl of a 25% suspension of protein A-Sepharose coated with rabbit anti rat IgG was added for 45 min. The immunoprecipitates were washed four times with IP buffer ([…], pH 7.5/1 mM EDTA/1% Triton X-100.0.5% deoxycholate/0.1%/SDS/0.1 M NaCl) boiled in SDS-PAGE sample buffer and loaded on 13% acrylamide gels. When the dye front reached the bottom, the gel was fixed, soaked in Enlightening, dried and autoradiographed. The intensities of the bands corresponding to farnesylated and nonfarnesylated ras proteins were compared to determine the percent inhibition of farnesyl transfer to protein.
# [2] = biological target: Farnesyl-protein transferase (FTase) (UniProt P49354+P49356); assay: In vitro inhibition of Ras farnesyl transferase; assay type: biochemical; settings: Ras-CVLS at 3.5 μM, 0.25 μM [3H]FPP; partially purified bovine or recombinant human enzyme; concentration giving 50% inhibition of FTase; read-out: Inhibition of RAS farnesylation, IC50
# Protocol: Farnesyl-protein transferase (FTase) from bovine brain was chromatographed on DEAE-Sephacel (Pharmacia, 0-0.8 M NaCl gradient elution), N-octyl agarose (Sigma, 0-0.6 M NaCl gradient elution), and a mono Q HPLC column (Pharmacia, 0-0.3 M NaCl gradient). Ras-CVLS at 3.5 μM, 0.25 μM [^3H]FPP, and the indicated compounds were incubated with either a partially purified bovine enzyme preparation or a recombinant human enzyme preparation. The recombinant human enzyme was prepared as described in Omer, C. A., Kral, A. M., Diehl, R. E., Prendergast, G. C., Powers, S., Allen, C. M., Gibbs, J. B. and Kohl, N. E. (1993) Biochemistry 32:5167-5176. The Frase data presented below in Table 1 reflects the ability of the test compound to inhibit RAS farnesylation in vitro, as described in Pompliano, et al., Biochemistry 31, 3800 (1992).
IC50 [1] [nM],IC50 [2] [nM],Compound
250,680,"CCC(C)[C@@H](CN1Cc2ccccc2C[C@H]1C(=O)N[C@@H](CCSC)C(=O)OC)NC[C@@H](N)CS (stereo partly drawn) [Compound 1, N-[N′-[2(S)-(2(R)-amino-3-mercaptopropylamino)-3(S)-methylpentyl]-1,2,3,4-tetrahydro-3(S)-isoquinolinecarboxyl]-methionine methyl ester]"
,0.39,"CCC(C)[C@@H](CN1Cc2ccccc2C[C@H]1C(=O)N[C@@H](CCSC)C(=O)O)NC[C@@H](N)CS (stereo partly drawn) [Compound 2, N-[N′-[2(S)-(2(R)-amino-3-mercaptopropylamino)-3(S)-methylpentyl]-1,2,3,4-tetrahydro-3(S)-isoquinolinecarboxyl]-methionine]"
250,100,"CC[C@H](C)[C@@H](CN1CCC[C@H]1C(=O)N[C@@H](CCSC)C(=O)OC)NC[C@@H](N)CS [Compound 3, N-[2(S)-(2(R)-amino-3-mercaptopropylamino)-3(S)-methylpentyl]-prolyl-methionine methyl ester]"
10000,17,"CC[C@H](C)[C@@H](CN1CCC[C@H]1C(=O)N[C@@H](CCSC)C(=O)O)NC[C@@H](N)CS [Compound 4, N-[2(S)-(2(R)-amino-3-mercaptopropylamino)-3(S)-methylpentyl]-prolyl-methionine]"
< 1000,520,"CC[C@H]1CCN(C[C@@H](NC[C@@H](N)CS)[C@@H](C)CC)[C@@H]1C(=O)N[C@@H](CCSC)C(=O)OC [Compound 5, N-[2(S)-(2(R)-amino-3-mercaptopropylamino)-3(S)-methylpentyl]-trans-3-ethyl-prolyl-methionine methyl ester]"
,10,"CC[C@H]1CCN(C[C@@H](NC[C@@H](N)CS)[C@@H](C)CC)[C@@H]1C(=O)N[C@@H](CCSC)C(=O)O [Compound 6, N-[2(S)-(2(R)-amino-3-mercaptopropylamino)-3(S)-methylpentyl]-trans-3-ethyl-prolyl-methionine]"
1000,2300,"CC[C@@H]1CCN(C[C@@H](NC[C@@H](N)CS)[C@@H](C)CC)[C@@H]1C(=O)N[C@@H](CCSC)C(=O)OC [Compound 7, N-[2(S)-(2(R)-amino-3-mercaptopropylamino)-3(S)-methylpentyl]-cis-3-ethyl-prolyl-methionine methyl ester]"
,4.2,"CC[C@@H]1CCN(C[C@@H](NC[C@@H](N)CS)[C@@H](C)CC)[C@@H]1C(=O)N[C@@H](CCSC)C(=O)O [Compound 8, N-[2(S)-(2(R)-amino-3-mercaptopropylamino)-3(S)-methylpentyl]-cis-3-ethyl-prolyl-methionine]"
> 10000,950,"CC[C@H](C)[C@@H](CN1CCC[C@H]1C(=O)N[C@@H](CCS(C)(=O)=O)C(=O)OC)NC[C@@H](N)CS [Compound 9, N-[2(S)-(2(R)-amino-3-mercaptopropylamino)-3(S)-methylpentyl]-prolyl-methionine sulfone methyl ester]"
,35,"CCC(C)C(CN1CCCC1C(=O)NC(CCS(C)(=O)=O)C(=O)O)NCC(N)CS [Compound 10, N-[2(S)-(2(R)-amino-3-mercaptopropylamino)-3(S)-methylpentyl]-prolyl-methionine sulfone]"
> 10000,390,"CCC(C)[C@@H](CN1Cc2ccccc2C[C@H]1C(=O)N[C@H]1CCOC1=O)NC[C@@H](N)CS (stereo partly drawn) [Compound 13, N-[N′-[2(S)-(2(R)-amino-3-mercaptopropylamino)-3(S)-methylpentyl]-1,2,3,4-tetrahydro-3(S)-isoquinolinecarboxyl]-homoserine lactone]"
,7.6,"CCC(C)[C@@H](CN1Cc2ccccc2C[C@H]1C(=O)N[C@@H](CCO)C(=O)O)NC[C@@H](N)CS (stereo partly drawn) [Compound 14, N-[N′-[2(S)-(2(R)-amino-3-mercaptopropylamino)-3(S)-methylpentyl]-1,2,3,4-tetrahydro-3(S)-isoquinolinecarboxyl]-homoserine]"
50000,1400,"CCC(C)C(CN1CCCC1C(=O)NC1CCOC1=O)NCC(N)CS [Compound 15, N-[2(S)-(2(R)-amino-3-mercaptopropylamino)-3(S)-methylpentyl]-prolyl-homoserine lactone]"
,45,"CC[C@H](C)[C@@H](CN1CCC[C@H]1C(=O)N[C@@H](CCO)C(=O)O)NC[C@@H](N)CS [Compound 16, N-[2(S)-(2(R)-amino-3-mercaptopropylamino)-3(S)-methylpentyl]-prolyl-homoserine]"
,24000,"CCC(C)C(CN1CCCCC1C(=O)NC1CCOC1=O)NCC(N)CS [Compound 17, N-[2(S)-(2(R)-amino-3-mercaptopropylamino)-3-methylpentyl]-2(S)-pipecolyl-homoserine lactone]"
,10000,"CCC(C)C(NCC(N)CS)C(=O)N1CCCC1C(=O)NC1CCOC1=O [Compound 19, N-[2(R)-amino-3-mercaptopropyl]-isoleucyl-prolyl-homserine lactone]"
,350,"CCC(C)C(NCC(N)CS)C(=O)N1CCCC1C(=O)NC(CCO)C(=O)O [Compound 20, N-[2(R)-amino-3-mercaptopropyl]-isoleucyl-prolyl-homserine]"
,25000,"CCC(C)C(NCC(N)CS)C(=O)N1CCCCC1C(=O)NC1CCOC1=O [Compound 21, N-[2(R)-amino-3-mercaptopropyl]-isoleucyl-2(S)-pipecolyl-homserine lactone]"
,340,"CCC(C)C(NCC(N)CS)C(=O)N1CCCCC1C(=O)NC(CCO)C(=O)O [Compound 22, N-[2(R)-amino-3-mercaptopropyl]-isoleucyl-2(S)-pipecolyl-homserine]"
< 1000,1200,"CCC(C)C(CN1CCCC1C(=O)NC(CCSC)C(=O)OC)N(C)CC(N)CS [Compound 23, N-[2(S)-(2(R)-amino-3-(mercaptopropyl)methylamino)-3(S)-methylpentyl]-prolyl-methionine methyl ester]"
,6,"CCC(C)C(CN1CCCC1C(=O)NC(CCSC)C(=O)O)N(C)CC(N)CS [Compound 24, N-[2(S)-(2(R)-amino-3-(mercaptopropyl)methylamino)-3(S)-methylpentyl]-prolyl-methionine]"
,10000,"CCC(C)C(CN1CCCC1C(=O)NC(CCS(C)(=O)=O)C(=O)OC)N(C)CC(N)CS [Compound 25, N-[2(S)-(2(R)-amino-3-(mercaptopropyl)methylamino)-3(S)-methylpentyl]-prolyl-methionine sulfone methyl ester]"
,56,"CCC(C)C(CN1CCCC1C(=O)NC(CCS(C)(=O)=O)C(=O)O)N(C)CC(N)CS [Compound 26, N-[2(S)-(2(R)-amino-3-(mercaptopropyl)methylamino)-3(S)-methylpentyl]-prolyl-methionine sulfone]"
